Assay results reported in US20140106421A1, “Methods Of Producing Carboxylic Acids And/Or Alcohols” (Industrial Technology Research Institute, priority 2012, published 2014).

What was measured:
[1] = Extraction of butyric acid from CGM medium with TOPO in oleyl alcohol (Example 1.2); format: physicochemical; details: 24 hours, 37° C.
Experimental: The butyric acid distribution ratio (D) was calculated by dividing the concentration of butyric acid in the organic medium by the concentration of butyric acid in the aqueous medium:
[…] The pH of the culture medium was further adjusted to a value ranging from 4 to 6 with 4 N NaOH and 4 N HCl.
After 24 hours, the concentrations of butyric acid in the CGM culture medium (the aqueous phase) and in the TOPO solution (the organic phase) were measured by HPLC.

[2] = system: PVA-immobilized clostridium tyrobutyricum; test: Extractive fermentation-column reactor, 1 M TOPO or TBP in oleyl alcohol (Example 4C); format: cell-based; details: 1 M extractant in oleyl alcohol as organic phase; 37° C., 100 hours
Experimental: In addition, the upper region of the reactor was filled with either 40 ml of 1 M TOPO in oleyl alcohol or 40 ml 1 M TBP in oleyl alcohol. The fermentation was conducted at 37° C. for 100 hours.

[3] = Extraction of butyric acid from CGM medium with TOA in oleyl alcohol (Example 1.1); format: physicochemical; details: CGM medium with 5% butyric acid, pH 4, 37° C.
Experimental: 50 ml of CGM culture medium (basal medium, see the table provided immediately below) containing 5% of butyric acid (the pH of the CGM medium decreased to 4 after the addition of the butyric acid) was mixed with 5 ml of 0.7 M, 1 M, […] of trioctylamine (C24H51N, CAS No. 1116-76-3, abbreviation: TOA) in oleyl alcohol at 37° C.
The concentrations of butyric acid in the CGM culture medium (i.e., the aqueous phase) and in the trioctylamine solution (i.e., the organic phase) were measured every 12 hours by high performance liquid chromatography (HPLC).
The butyric acid distribution ratio (D) was calculated by dividing the concentration of butyric acid in the organic medium by the concentration of butyric acid in the aqueous medium: […]

[4] = system: C. tyrobutyricum ATCC25755; test: Free-cell culture with organic solution on top of the culture medium (Example 2); format: cell-based; details: free cells, 24 hours at 37° C.
Experimental: The culture medium was then inoculated with 0.08 ml of bacterial stock comprising C. tyrobutyricum ATCC25755. The initial optical density (OD) measured at a wavelength of 600 nm was 0.2. After inoculation, 0.8 ml of an organic solution (as listed in the Table 4 below) was added to the top of the culture medium. The bacteria was then cultured in Tecan infinite 200 Pro Multimode Microplate Readers (Tecan Group Ltd., Switzerland) for 24 hours at 37° C., with shaking once every 30 minutes.

[5] = system: PVA-immobilized clostridium tyrobutyricum; test: 2-liter tank fermentor extractive fermentation (Example 5); format: cell-based; details: 37° C., 40 hours
From the text: A 2-liter tank fermentor 500 as illustrated in FIG. 5 was used in this Example. […] The medium was then purged with N2 to reach anaerobiosis. The pH of the basal medium was further adjusted to 6.0 with 2 N NaOH. Subsequently, the medium was inoculated with about 100 g of PVA-immobilized C. tyrobutyricum cell beads prepared as described above. An extractive fermentation-column reactor similar to the one shown in FIG. 5 was used in this example. The lower region of the reactor was filled with 700 ml of the basal medium containing glucose as the substrate and inoculated with about 70 ml of PVA-immobilized clostridium tyrobutyricum. In addition, the upper region of the reactor was filled with either 700 ml of 1 M TOPO in oleyl alcohol or 700 ml of oleyl alcohol without TOPO. The fermentation was conducted at 37° C. for 40 hours, and the pH of the fermentation medium was not controlled in this example.

CCCCCCCCP(=O)(CCCCCCCC)CCCCCCCC [TOPO, trioctylphosphine oxide]
butyric acid distribution ratio ([1]; TOPO 0.1 M in oleyl alcohol, butyric acid 1%, pH 4): 1.45
butyric acid distribution ratio ([1]; TOPO 0.1 M in oleyl alcohol, butyric acid 1%, pH 5): 0.31
butyric acid distribution ratio ([1]; TOPO 0.1 M in oleyl alcohol, butyric acid 1%, pH 6): 0.00
butyric acid distribution ratio ([1]; TOPO 0.1 M in oleyl alcohol, butyric acid 2%, pH 4): 2.12
butyric acid distribution ratio ([1]; TOPO 0.1 M in oleyl alcohol, butyric acid 2%, pH 5): 0.37
butyric acid distribution ratio ([1]; TOPO 0.1 M in oleyl alcohol, butyric acid 2%, pH 6): 0.05
butyric acid distribution ratio ([1]; TOPO 0.1 M in oleyl alcohol, butyric acid 3%, pH 4): 2.17
butyric acid distribution ratio ([1]; TOPO 0.1 M in oleyl alcohol, butyric acid 3%, pH 5): 0.26
butyric acid distribution ratio ([1]; TOPO 0.1 M in oleyl alcohol, butyric acid 3%, pH 6): 0.00
butyric acid distribution ratio ([1]; TOPO 0.5 M in oleyl alcohol, butyric acid 1%, pH 4): 1.91
butyric acid distribution ratio ([1]; TOPO 0.5 M in oleyl alcohol, butyric acid 1%, pH 5): 0.36
butyric acid distribution ratio ([1]; TOPO 0.5 M in oleyl alcohol, butyric acid 1%, pH 6): 0.03
butyric acid distribution ratio ([1]; TOPO 0.5 M in oleyl alcohol, butyric acid 2%, pH 4): 2.82
butyric acid distribution ratio ([1]; TOPO 0.5 M in oleyl alcohol, butyric acid 2%, pH 5): 0.37
butyric acid distribution ratio ([1]; TOPO 0.5 M in oleyl alcohol, butyric acid 2%, pH 6): 0.06
butyric acid distribution ratio ([1]; TOPO 0.5 M in oleyl alcohol, butyric acid 3%, pH 4): 2.90
butyric acid distribution ratio ([1]; TOPO 0.5 M in oleyl alcohol, butyric acid 3%, pH 5): 0.35
butyric acid distribution ratio ([1]; TOPO 0.5 M in oleyl alcohol, butyric acid 3%, pH 6): 0.04
butyric acid distribution ratio ([1]; TOPO 1 M in oleyl alcohol, butyric acid 1%, pH 4): 2.67
butyric acid distribution ratio ([1]; TOPO 1 M in oleyl alcohol, butyric acid 1%, pH 5): 0.42
butyric acid distribution ratio ([1]; TOPO 1 M in oleyl alcohol, butyric acid 1%, pH 6): 0.06
butyric acid distribution ratio ([1]; TOPO 1 M in oleyl alcohol, butyric acid 2%, pH 4): 3.88
butyric acid distribution ratio ([1]; TOPO 1 M in oleyl alcohol, butyric acid 2%, pH 5): 0.43
butyric acid distribution ratio ([1]; TOPO 1 M in oleyl alcohol, butyric acid 2%, pH 6): 0.04
butyric acid distribution ratio ([1]; TOPO 1 M in oleyl alcohol, butyric acid 3%, pH 4): 4.20
butyric acid distribution ratio ([1]; TOPO 1 M in oleyl alcohol, butyric acid 3%, pH 5): 0.35
butyric acid distribution ratio ([1]; TOPO 1 M in oleyl alcohol, butyric acid 3%, pH 6): 0.04
Cells growth (Δ OD600) [2]: 6.0

CCCCCCCCN(CCCCCCCC)CCCCCCCC [TOA, trioctylamine]
Butyric acid distribution ratio (D) ([3]; 0.7M TOA in oleyl alcohol): 7.38
Butyric acid distribution ratio (D) ([3]; 1M TOA in oleyl alcohol): 10.21
Butyric acid distribution ratio (D) ([3]; 1.4M TOA in oleyl alcohol): 13.82

CCCCCCCC/C=C\CCCCCCCCO [Oleyl alcohol only, oleyl alcohol]
Glucose consumption rate % [4]: 80.7%
Bacterial Growth rate (OD/h) ([4]; OD at 600 nm): 0.08 OD/h
% of glucose consumed [5]: 100%
Distribution ratio of butryic acid [5]: 0.86
